Laboratory results reported in patent US20060128688A1, “Asenapine for the treatment of schizophrenia in a patient with overweight or predisposition for overweight” (priority 2003, published 2006).
“And” between values parts separate entries of the source, which are not always exact repeats. Equal entries are not always repeated. Where two headings read alike, the source gives them in different places. Values belong to the compound of their own block, whether it stands above or below them.

How the values were obtained:
[1] = system: subjects with acute exacerbation of their schizophrenic illness; test: Randomized double blind, fixed-dose 6-week trial: efficacy on disease symptoms (PANSS); assay type: in vivo, human; conditions: asenapine 5 mg twice a day sublingual, risperidone 3 mg twice daily, 6 weeks, compared with placebo
[2] = among atypical antipsychotics, literature review; cited from earlier work
[3] = All-Subjects-Treated Group, baseline to day 42 or final day of treatment

number of subjects with greater than 10% weight gain from baseline (All-Subjects-Treated Group): 1
subjects with clinically significant weight gain (increase from baseline of ≧7%), % [3]: 4% and 4.3%
subjects with clinically significant weight gain (increase from baseline of ≧7%), % (All-Subjects-Treated Group, baseline to day 42 or final day of treatment, listed as Asenapine): 4.3%
Structure (SMILES): CN1C[C@@H]2c3ccccc3Oc3ccc(Cl)cc3[C@H]2C1 (relative stereo) [asenapine, trans-5-chloro-2-methyl-2,3,3a,12b-tetrahydro-1H-dibenz[2,3:6,7]oxepino[4,5-c]pyrrole]
number of subjects (n) with clinically significant decrease of ≧7% from baseline in body weight [3]: 0
number of subjects (n) with clinically significant increase of ≧7% from baseline in body weight [3]: 2
subjects with clinically significant decrease of ≧7% from baseline in body weight, % [3]: 0.0%
increase in body weight from baseline (at end point, group result): 0.5%
other side effects (overall conclusion of the 6-week trial): minimal other side effects
efficacy in reducing the symptoms of schizophrenia [1]: significantly more effective than placebo

Structure (SMILES): Cc1cc2c(s1)Nc1ccccc1N=C2N1CCN(C)CC1 [olanzapine]
weight gain associated with the drug [2]: largest weight gains

Structure (SMILES): OCCOCCN1CCN(C2=Nc3ccccc3Sc3ccccc32)CC1 [quetiapine]
weight gain associated with the drug [2]: smallest

Structure (SMILES): Cc1nc2n(c(=O)c1CCN1CCC(c3noc4cc(F)ccc34)CC1)CCCC2 [risperidone, reference compound]
number of subjects with greater than 10% weight gain from baseline (All-Subjects-Treated Group): 2
number of subjects (n) with clinically significant decrease of ≧7% from baseline in body weight [3]: 1
number of subjects (n) with clinically significant increase of ≧7% from baseline in body weight [3]: 8
efficacy in reducing the symptoms of schizophrenia [1]: significantly more effective than placebo
weight gain associated with the drug [2]: modest weight changes that are not dose related

Structure (SMILES): O=C1Cc2cc(CCN3CCN(c4nsc5ccccc45)CC3)c(Cl)cc2N1 [ziprasidone]
weight gain associated with the drug [2]: smallest
